We go through four molecules from patent US20100016244A1, “D-GLUCOPYRANOSE 1-[3,5-BIS (1,1-DIMETHYLETHY)-4-HYDROXYBENZOATE] AND ITS DERIVATIVES, PREPARATION AND USE THEREOF” (priority 2006, published 2010).

Converted amounts (≈) assume the structure as drawn.

Data set [1] has as its system HIV. The conditions noted are these: cited from earlier work.
Data set [2] in a line: Solubility in water (tests 1-3). The conditions noted are these: for pH: after stirring for 48 H at 23° C. in water.
Data set [3] has as its system HIV.
For data set [4], the system named is VHS (Herpes Simplex Virus). The conditions noted are these: from FR 2 668 931; cited from earlier work.
Another data set relates to enveloped-viruses. The data set is described as follows: Active concentration on enveloped-viruses. The following applies: BHT versus RDW 031.
The next data set is described as follows: physchem. The following applies: water, thermodynamic from solid.
The nature of data set [5]: Studies on rats (progeny, mutagenic effect).
Data set [6] relates to VHS (Herpes Simplex Virus). The data set is described as follows: Virucidal activity on VHS (Herpes Simplex Virus), decrease in log by concentration and contact time. The following applies: for Decrease expressed in log: test n° 4. On the procedure: Results of the tests conducted in the laboratory of Prof. Chiron, (Faculty of Pharmacy of Tours): [table] hypothesis: 10 mg/8 ml (solubility check) Stock-solution: 33.47 mg/24.10 ml (x 1.11 C) i.e.: 11.11 mg/8 ml [table]

As for `CC(C)(C)c1cc(C(=O)OCCOCCOCCOCCOCCOCCOCCOCCO)cc(C(C)(C)C)c1O` [AVF1, 3.5-di-tert-butyl-4-hydroxybenzoate octa-oxy-ethylene glycol], the “decrease of HIV's infectivity” value in the data set with HIV [1] is 7 log.

As for `CC(C)(C)c1cc(C(=O)O)cc(C(C)(C)C)c1O` [BG4, 3,5-di-t-butyl-4-hydroxybenoic acid], in data set [2] (Test No 2, water, RDW031 batch RV 34), the “Solubility 12 H at 23° C.” value is given as “insoluble”. The “Solubility after stirring for 48 H at 23° C.” value in data set [2] (Test no 3, 1 g + 100 ml H2O, RDW031 batch RV 41, BG4 from SIGMA-ALDRICH) stood at 0.13 mg/mL. Moreover, the pH result in data set [2] (Test no 3) is “pH = 5.6”. The “Solubilité ½ H à 23° c.” value in data set [2] (water, ½ H at 23° C.) is given as “No measurable”. Further, in [2] (water, ½ H at 100° C., no desolubilization at room temperature), the “Solubility ½ H at 100° C.” value was 0.84 g/litre (no. Besides, the “reduction of the virulence of a HIV culture” value in the data set on HIV [3] is 5 log. Moreover, the “concentration required for effectiveness on VHS” value in [4] is on record as 0.5%.

Take `Cc1cc(C(C)(C)C)c(O)c(C(C)(C)C)c1` [BHT, butylhydroxytoluene]: the “molar active concentration relative to RDW 031” value in the data set on enveloped-viruses is reported as 100 times.

Regarding `CC(C)(C)c1cc(C(=O)OC2O[C@H](CO)[C@@H](O)[C@H](O)[C@H]2O)cc(C(C)(C)C)c1O` (stereo partly drawn) [RDW031], the pH entry in data set [2] (Test no 3) is recorded as “pH = 5.9”. For the same molecule, in the data set with polio virus, the “effect on polio virus (naked-virus)” value was “no effect”. Also, the solubility at 0.5 h stood at 0.04 mg/mL (≈ 97 µM) in the data set “physchem” (23 °C) and 1.08 mg/mL (≈ 2620 µM) in “physchem” (100 °C). This molecule also gave a solubility at 12 h in the data set “physchem” (23 °C) of 1.2 mg/mL (≈ 2910 µM). Further, the “reduction of the virulence of a HIV culture” value with HIV [3] is 5 log. Also, the “effects on progeny and mutagenic effect” value in data set [5] is reported as “never shown any detectable effects”. For the same molecule, the “active concentration, starting” value in [6] was at least 0.0625%. For the same molecule, the “Reduction expressed in log” value in [6] (0.00125 mg/ml (1/1000), contact time 120 min) is on record as 0.31 log; in data set [6] (0.00250 mg/ml (1/500), contact time 60 min), 1.06 log; in data set [6] (0.00250 mg/ml (1/500), contact time 120 min), 1.15 log; in data set [6] (0.00625 mg/ml (1/200), contact time 60 min) it was 1.06 log; in data set [6] (0.02500 mg/ml (1/50), contact time 30 min) it was 0.31 log; in data set [6] (0.06250 mg/ml (1/20), contact time 30 min) it was 0.21 log. The “Reduction expressed in log” value in data set [6] (0.25000 mg/ml (⅕), contact time 15 min) is listed as 0.00 log; in data set [6] (0.62500 mg/ml (½), contact time 15 min), 3.68 log. Also, the “active concentration expressed” value in data set [6] (converted from % concentration) was at least 0.0015 mol. Besides, the “Decrease expressed in log” value in data set [6] (0.17028 mg/ml (⅕), contact time 15 min) came out at 0.00 log; in [6] (0.17028 mg/ml (⅕), contact time 30 min) it was 0.00 log; in [6] (0.17028 mg/ml (⅕), contact time 60 min), 0.00 log; in [6] (0.17028 mg/ml (⅕), contact time 120 min), 0.00 log; in [6] (0.42570 mg/ml (½), contact time 60 min), 0.00 log; in data set [6] (0.42570 mg/ml (½), contact time 120 min), 1.48 log. Moreover, the “Decrease expressed in log” value in [6] (0.85140 mg/ml (pur), contact time 15 min) turned out to be 1.25 log; in [6] (0.85140 mg/ml (pur), contact time 30 min), 1.86 log; in data set [6] (0.85140 mg/ml (pur), contact time 60 min) it was 2.15 log; in data set [6] (0.85140 mg/ml (pur), contact time 120 min) it was 2.32 log.

For orientation: solubility means the concentration that dissolves in the medium under given conditions.
